Measured values as given in patent US10195156B2, “Compounds and compositions for intracellular delivery of agents” (ModernaTX, Inc., priority 2015, dated 2019).

Key:
IP-10 = assay: Cytokine production induced by sample formulations: IP-10; type: in vivo; conditions: mice, i.v., 0.5 mpk, 6 hours, in pg/mL (unit assumed)
Excerpt: (§1) The introduction of foreign material into a mammalian body induces an innate immune response that promotes cytokine production. Such immune responses to, for example, nanoparticle compositions including therapeutic and/or prophylactic agents, are undesirable. The induction of certain cytokines is thus measured to evaluate the […] of nanoparticle compositions. The concentrations of various cytokines in mice upon intravenous administration of nanoparticle compositions presented in Tables 1, 1a, 17-1, 19-1, 20-1 and 21-1 at a dosage of 0.5 mpk was measured at 6 hours. The standard MC3 formulation and a PBS control were also tested.

[1] = Particle size and polydispersity index of nanoparticle compositions (Zetasizer Nano ZS); type: physicochemical
Protocol: A Zetasizer Nano ZS (Malvern Instruments Ltd, Malvern, Worcestershire, UK) can be used to determine the particle size, the polydispersity index (PDI) and the zeta potential of the nanoparticle compositions in 1×PBS in determining particle size and 15 mM PBS in determining zeta potential.

[2] = pKa of nanoparticle compositions; type: physicochemical
[3] = Encapsulation efficiency of RNA (QUANT-IT RIBOGREEN RNA assay); type: physicochemical; conditions: for encapsulation efficiency, rank within the named table (in words): comparison amongst compositions
Protocol: For nanoparticle compositions including an RNA, a QUANT-IT™ RIBOGREEN® RNA assay (Invitrogen Corporation Carlsbad, Calif.) can be used to evaluate the encapsulation of an RNA by the nanoparticle composition. The samples are diluted to a concentration of approximately 5 μg/mL in a TE buffer solution (10 mM Tris-HCl, 1 mM EDTA, pH 7.5). 50 μL of the diluted samples are transferred to a polystyrene 96 well plate and either 50 μL of TE buffer or 50 μL of a 2% Triton X-100 solution is added to the wells. The plate is incubated at a temperature of 37° C. for 15 minutes. The RIBOGREEN® reagent is diluted 1:100 in TE buffer, and 100 μL of this solution is added to each well. The fluorescence intensity can be measured using a fluorescence plate reader (Wallac Victor 1420 Multilablel Counter; Perkin Elmer, Waltham, Mass.) at an excitation wavelength of, for example, about 480 nm and an emission wavelength of, for example, about 520 nm. The fluorescence values of the reagent blank are subtracted from that of each of the samples and the percentage of free RNA is determined by dividing the fluorescence intensity of the intact sample (without addition of Triton X-100) by the fluorescence value of the disrupted sample (caused by the addition of Triton X-100).

[4] = system: luciferase (Luc) mRNA expression; assay: Expression of Luc induced by sample formulations, whole-body bioluminescence after intravenous administration; type: in vivo; conditions: mice, i.v., 0.5 mg/kg; for total flux / Luc expression, rank within the named table (in words): each time point
Protocol: In order to monitor how effectively various nanoparticle compositions deliver therapeutic and/or prophylactic agents to targeted cells, different nanoparticle compositions including a particular therapeutic and/or prophylactic agent (for example, a modified or naturally occurring RNA such as an mRNA) are prepared and administered to rodent populations. Mice are intravenously, intramuscularly, intraarterially, or intratumorally administered a single dose including a nanoparticle composition with a formulation such as those provided in Table 1. In some instances, mice may be made to inhale doses. Dose sizes may range from 0.001 mg/kg to 10 mg/kg, where 10 mg/kg describes a dose including 10 mg of a therapeutic and/or prophylactic agent in a nanoparticle composition for each 1 kg of body mass of the mouse. A control composition including PBS may also be employed.
Upon administration of nanoparticle compositions to mice, dose delivery profiles, dose responses, and toxicity of particular formulations and doses thereof can be measured by enzyme-linked immunosorbent assays (ELISA), bioluminescent imaging, or other methods. For nanoparticle compositions including mRNA, time courses of protein expression can also be evaluated. Samples collected from the rodents for evaluation may include blood, sera, and tissue (for example, muscle tissue from the site of an intramuscular injection and internal tissue); sample collection may involve sacrifice of the animals.
The efficacy of the nanoparticle compositions presented in Tables 1, 1a, 17-1, 19-1, 20-1 and 21-1 was evaluated with a bioluminescence study. Formulations were administered intravenously to mice (n=6) at a dosage of 0.5 mg/kg (mpk) and bioluminescence measured at 3, 6, and 24 hour time points. The standard MC3 formulation and a PBS control were evaluated for comparison.

[5] = system: modified luciferase expression; assay: Expression of Luc in different organs (liver, lung, spleen, femur) 6 hours after intravenous administration; type: in vivo; conditions: i.v., 0.5 mpk
Protocol: The efficacy of the nanoparticle compositions presented in Tables 1, 1a, 17-1, 19-1, 20-1 and 21-1 was further evaluated by measuring the expression of modified luciferase in the liver, lung, spleen, and femur upon administration of a given composition. Formulations were administered intravenously to mice (n=3) at a dosage of 0.5 mpk and bioluminescence measured after 6 hours. The standard MC3 formulation and a PBS control were also tested.

IL-6 = assay: Cytokine production induced by sample formulations: IL-6; type: in vivo; conditions: mice, i.v., 0.5 mpk, 6 hours
Excerpt: as §1

[6] = Table 1, rows without footnote mark
[7] = Table 20-1, rows without footnote mark
[8] = Table 1, * formulated with lipid:DSPC:Chol:PEG-DMG 50:10:38.5:1.5
[9] = Table 1, * lipid:DSPC:Chol:PEG-DMG 50:10:38.5:1.5

SMILES: CCCCCCCC/C=C\CCCCCCCCN(CCO)CCCCCCCC/C=C\CCCCCCCC [Compound 17-8, 2-(Di((Z)-octadec-9-en-1-yl)amino)ethan-1-ol]
- IP-10 (IP-10; Table 17-4): 135
- PDI ([1]; Table 17-1): 0.20
- Size (nm) ([1]; Table 17-1): 86.4 nm
- pKa ([2]; Table 17-1): 6.16
- EE (%) ([3]; Table 17-1): 96.9%
- encapsulation efficiency, rank within the named table (in words) [3]: comparable to that for MC3
- Total Flux 3 hours ([4]; Table 17-2): 1.02E+09
- Total Flux 6 hours ([4]; Table 17-2): 5.94E+08
- Total Flux 24 hours ([4]; Table 17-2): 3.79E+07
- total flux / Luc expression, rank within the named table (in words) [4]: substantially higher flux than compositions including Compounds 17-2, 17-3, and 17-7
- Total Flux Liver ([5]; Table 17-3, mice): 2.27E+08
- Total Flux Lung ([5]; Table 17-3, mice): 6.11E+05
- Total Flux Spleen ([5]; Table 17-3, mice, spleen): 4.25E+06
- total flux in the liver, rank within the named table (in words) ([5]; mice): somewhat comparable to those including MC3
- total flux in the spleen, rank within the named table (in words) ([5]; mice, spleen): highest

SMILES: CCCCCCCCCCCCN(CCCCCCCCCCCC)CCN(CCCCCCCCCCCC)CCN1CCN(C(=O)CN(CCCCCCCCCCCC)CCCCCCCCCCCC)CC1 [Compound 3, 2-(Didodecylamino)-1-(4-(2-((2-(didodecylamino)ethyl)(dodecyl)amino)ethyl)piperazin-1-yl)ethan-1-one]
- IP-10 (IP-10; Table 4): 341
- PDI [1, 6]: 0.044
- Size (nm) ([1]; Table 1, rows without footnote mark (lipid:DOPE:cholesterol:PEG-DMG 40:20:38.5:1.5, Luc mRNA; MC3 standard formulation)): 73.5 nm
- IL-6 (IL-6; Table 4, in pg/mL (unit assumed)): 7
- IL-6 induction, rank within the named table (in words) (IL-6): lowest IL-6 expression
- EE (%) [3, 6]: 92.5%
- Total Flux 3 hours ([4]; Table 2): 3.75E+08
- Total Flux 6 hours ([4]; Table 2): 1.12E+09
- Total Flux Liver ([5]; Table 3, mice): 1.36E+08
- Total Flux Lung ([5]; Table 3, mice): 8.47E+05
- Total Flux Spleen ([5]; Table 3, mice, spleen): 9.51E+05

SMILES: CCCCCCCCCCCCN(CCCCCCCCCCCC)CCNCCO [Compound 20-19, 2-((2-(Didodecylamino)ethyl)amino)ethan-1-ol]
- IP-10 (IP-10; Table 20-4, formula (20-I)): 127.2
- PDI [1, 7]: 0.145
- Size (nm) [1, 7]: 74.9 nm
- pKa [2, 7]: 4.73
- EE (%) [3, 7]: 99.5%
- encapsulation efficiency, rank within the named table (in words) [3]: highest
- Total Flux 3 hours ([4]; Table 20-2): 5.37E+05
- Total Flux 6 hours ([4]; Table 20-2): 7.60E+05
- Total Flux 24 hours ([4]; Table 20-2): 6.08E+05
- Total Flux Liver ([5]; Table 20-3, mice): 3.80E+05
- Total Flux Lung ([5]; Table 20-3, mice): 1.96E+04
- Total Flux Spleen ([5]; Table 20-3, mice, spleen): 2.74E+04

SMILES: CCCCCCCCCCCCN(CCCCCCCCCCCC)CCN1CCN(C(=O)CN(CCCCCCCCCCCC)CCN(CCCCCCCCCCCC)CCCCCCCCCCCC)CC1 [Compound 2, 2-((2-(Didodecylamino)ethyl)(dodecyl)amino)-1-(4-(2-(didodecylamino)ethyl)piperazin-1-yl)ethan-1-one]
- IP-10 (IP-10; Table 4): 3365
- Size (nm) [1, 8]: 94.7 nm
- PDI [1, 9]: 0.108
- pKa [2, 9]: 6.39
- EE (%) [3, 9]: 96%
- Total Flux 3 hours ([4]; Table 2): 6.01E+09
- Total Flux 6 hours ([4]; Table 2): 3.23E+09
- Total Flux 24 hours ([4]; Table 2): 3.23E+09
- Total Flux Liver ([5]; Table 3, mice): 3.33E+08
- Total Flux Lung ([5]; Table 3, mice): 4.76E+05
- Total Flux Spleen ([5]; Table 3, mice, spleen): 1.14E+07

SMILES: CCCCCCCCCN(CCO)CCN(CCCCCCCCC)CCCCCCCCC [Compound 20-16, 2-((2-(Dinonylamino)ethyl)(nonyl)amino)ethan-1-ol]
- IP-10 (IP-10; Table 20-4, formula (20-I)): 395.7
- PDI [1, 7]: 0.225
- Size (nm) [1, 7]: 73.5 nm
- pKa [2, 7]: 6.62
- EE (%) [3, 7]: 97.2%
- Total Flux 3 hours ([4]; Table 20-2): 7.88E+05
- Total Flux 6 hours ([4]; Table 20-2): 6.25E+05
- Total Flux 24 hours ([4]; Table 20-2): 2.16E+05
- total flux after 24 hours, rank within the named table (in words) [4]: lowest
- Total Flux Liver ([5]; Table 20-3, mice): 9.55E+04
- Total Flux Lung ([5]; Table 20-3, mice): 1.44E+04
- Total Flux Spleen ([5]; Table 20-3, mice, spleen): 6.57E+04
- total flux in the liver, rank within the named table (in words) ([5]; mice): lowest

SMILES: CCCCCCCCCCCCN(CCCCCCCCCCCC)CCN(CCCCCCCCCCCC)CCN1CCNCC1 [Compound 37, N^1,N^1,N^2-Tridodecyl-N^2-(2-(piperazin-1-yl)ethyl)ethane-1,2-diamine]
- IP-10 (IP-10; Table 4): 198
- Size (nm) [1, 8]: 86.6 nm
- PDI [1, 9]: 0.107
- pKa [2, 9]: 6.45
- EE (%) [3, 9]: 99.9%
- encapsulation efficiency, rank within the named table (in words) [3]: highest
- Total Flux 3 hours ([4]; Table 2): 1.19E+07
- Total Flux 6 hours ([4]; Table 2): 6.66E+06
- Total Flux 24 hours ([4]; Table 2): 9.38E+05
- total flux after 24 hours, rank within the named table (in words) [4]: lowest flux after 24 hours
- Total Flux Liver ([5]; Table 3, mice): 1.92E+06
- Total Flux Lung ([5]; Table 3, mice): 6.90E+05
- Total Flux Spleen ([5]; Table 3, mice, spleen): 9.75E+05

SMILES: CCCCC/C=C\C/C=C\CCCCCCCCC1(CCCCCCCC/C=C\C/C=C\CCCCC)CC(OC(=O)CCCN(C)C)C1 [Compound 21-2, 3,3-Di((9Z,12Z)-octadeca-9,12-dien-1-yl)cyclobutyl 4-(dimethylamino)butanoate]
- PDI ([1]; Table 21-1): 0.200
- Size (nm) ([1]; Table 21-1): 83.0 nm
- particle size, rank within the named table (in words) ([1]; comparison amongst compositions): smallest particles
- pKa ([2]; Table 21-1): 6.98
- EE (%) ([3]; Table 21-1): 99.4%
- Total Flux 3 hours ([4]; Table 21-2): 5.99E+08
- Total Flux 6 hours ([4]; Table 21-2): 8.09E+08
- Total Flux 24 hours ([4]; Table 21-2): 8.09E+08
- total flux / Luc expression, rank within the named table (in words) [4]: least expression at 3 and 6 hours
- Total Flux Liver ([5]; Table 21-3, mice): 5.50E+07
- Total Flux Lung ([5]; Table 21-3, mice): 2.53E+05
- Total Flux Spleen ([5]; Table 21-3, mice, spleen): 1.56E+07
- total flux in organs, rank or organ comparison (in words) ([5]; mice, each organ or overall): lowest expression in each organ
